Publication PMC10180490, “New Indazol-Pyrimidine-Based Derivatives as Selective Anticancer Agents: Design, Synthesis, and In Silico Studies” (Molecules, 2023)

What was measured:
[1] = test system: breast cancer cells (MCF-7); experiment: MTT cytotoxicity assay, MCF-7; format: cell-based; conditions: Homo sapiens, MCF7, MCF-7 cells, 48 h
Experimental: (§1) All of the synthesized compounds were screened for their cytotoxic effect against three different human cancer cells, namely breast cancer cells (MCF-7), lung cancer cells (A549), and colorectal adenocarcinoma cells (Caco2), using the MTT cytotoxic assay. […] Then, 3-[4,5-dimethylthiazol-2-yl]-2,5-diphenyl tetrazolium bromide (MTT) was added.

lung cancer cells (A549) = experiment: MTT cytotoxicity assay, A549; format: cell-based, human
Experimental: as §1

[2] = test system: colorectal adenocarcinoma cells (Caco2); experiment: MTT cytotoxicity assay, Caco2; format: cell-based; conditions: Homo sapiens, Caco-2, 48 h
Experimental: as §1

[3] = Cytotoxicity toward normal cells MCF-10a; format: cell-based, human; conditions: human, MCF-10a mammary gland epithelial cells (normal), MCF-10a normal cell line
[4] = test system: mammary gland epithelial cell line MCF-10a; experiment: Cytotoxicity toward normal cells MCF-10a; format: cell-based, human; conditions: for SI (selectivity index): MCF-10a IC50 relative to MCF-7 IC50
MCF-7 cells [5] = experiment: Cell cycle analysis by DNA flow cytometry; format: cell-based, human; conditions: MCF-7, 24 h; for increase in the percentage of cells in the G0-G1 phase: compared with the control (53.89%)
Experimental: An encouraging strategy for cancer therapy is targeting the cell cycle, according to the reported method. In this study, compounds 4i and 4f were tested—using a DNA flow cytometry assay—for their effects on the cell cycle of MCF-7 cells (Figure 2). […] Simultaneously, there was a significant reduction in the percentage of the cell population in the G2/M phase—32% and 46% for cells treated with compound 4f or 4i, respectively, compared with controls. The decline in the proportion of cells in the G2/M phase as well as the increase in the cell population in the G0-G1 and S phases indicate a reduction in cell cycle progression in MCF-7 cells.

MCF-7 cells [6] = experiment: Annexin-V/PI apoptosis assay; format: cell-based, human; conditions: MCF-7, 24 h; for Annexin V/PI quadrant, remaining (necrosis): Figure 3, quadrant not given, assigned by elimination; for average increment at the early phase of apoptosis / average increment in late-stage apoptosis: average for the treated groups; for percentage of Annexin V/PI-stained cells: both early and late phases of apoptosis, untreated 1.76%
Experimental: To assess the apoptotic potential, MCF-7 cells were treated with compound 4i or 4f for 24 h and then assayed for Annexin-V/PI (propidium iodide) binding according to the reported protocol. […] At the early phase of apoptosis, the average increment for the treated groups was around 27%, while it was around 14% in late-stage apoptosis.
Apoptosis was measured using an Annexin V-FITC Apoptosis Detection Kit and analyzed using FACSCalibur flow cytometer.

[7] = test system: caspase-3/7 in MCF-7 cells; experiment: Caspase-3/7 Green flow cytometry assay; format: cell-based, human; conditions: untreated controls 0.43%
Experimental: Caspases are essential factors in apoptotic cell death since they play a key role in maintaining homeostasis, and their activation induces apoptosis.
Caspase-3/7 activity was calculated using Caspase-3/7 Green Flow Cytometry Assay Kit Catalog # C10427.

Compound `O=S(=O)(Nc1ncccn1)c1ccc(Nc2ncc(F)c(Nc3ccc4[nH]ncc4c3)n2)cc1` [Compound 4a, 4-((4-((1H-indazol-5-yl)amino)-5-fluoropyrimidin-2-yl)amino)-N-(pyrimidin-2-yl)benzenesulfonamide] has an IC50 [1] of 2.96 ± 0.14 µM, an IC50 (lung cancer cells (A549); 48 h) of 3.2 ± 0.18 µM and an IC50 (lung cancer cells (A549); Homo sapiens, A549, 48 h) of 3.3 µM. For the same compound, the IC50 [2] was 10.3 ± 0.51 µM and the melting point was 343 to 345 °C.
For `O=S(=O)(Nc1nccs1)c1ccc(Nc2ncc(F)c(Nc3ccc4[nH]ncc4c3)n2)cc1` [Compound 4b, 4-((4-((1H-indazol-5-yl)amino)-5-fluoropyrimidin-2-yl)amino)-N-(thiazol-2-yl)benzenesulfonamide], the IC50 [1] was 14.3 ± 0.68 µM, the IC50 (lung cancer cells (A549); Homo sapiens, A549, 48 h) was 52.9 ± 2.92 µM and the IC50 [2] was 31.2 ± 1.55 µM. It also gave a melting point of 285 to 287 °C.
In the case of `COc1cc(Nc2ncc(F)c(Nc3ccc4[nH]ncc4c3)n2)cc(OC)c1OC` [Compound 4c, 5-fluoro-N4-(1H-indazol-5-yl)-N2-(3,4,5-trimethoxyphenyl)pyrimidine-2,4-diamine], the IC50 [1] is reported as 29.1 ± 1.4 µM, the IC50 (lung cancer cells (A549); Homo sapiens, A549, 48 h) is reported as 58.8 ± 3.25 µM and the IC50 [2] is reported as 67.8 ± 3.36 µM. The melting point was 352 to 354 °C.
In the case of `NS(=O)(=O)c1cccc(Nc2ncc(F)c(Nc3ccc4[nH]ncc4c3)n2)c1` [Compound 4d, 3-((4-((1H-indazol-5-yl)amino)-5-fluoropyrimidin-2-yl)amino)benzenesulfonamide], the IC50 [1] is reported as 4.8 ± 0.23 µM, the IC50 (lung cancer cells (A549); Homo sapiens, A549, 48 h) is reported as 13.5 ± 0.74 µM and the IC50 [2] is reported as 9.63 ± 0.48 µM. It also gave a melting point of 286 to 288 °C.
`NS(=O)(=O)c1ccc(Nc2ncc(F)c(Nc3ccc4[nH]ncc4c3)n2)cc1` [Compound 4e, 4-((4-((1H-indazol-5-yl)amino)-5-fluoropyrimidin-2-yl)amino)benzenesulfonamide] showed an IC50 [1] of 25.1 ± 1.2 µM, an IC50 (lung cancer cells (A549); Homo sapiens, A549, 48 h) of 46.6 ± 2.57 µM and an IC50 [2] of 7.17 ± 0.36 µM. The melting point was 303 to 305 °C.
`Fc1cnc(Nc2ccc(N3CCOCC3)cc2)nc1Nc1ccc2[nH]ncc2c1` [Compound 4f, 5-fluoro-N4-(1H-indazol-5-yl)-N2-(4-morpholinophenyl) pyrimidine-2,4-diamine] gave an IC50 [1] of 1.63 ± 0.08 µM, an IC50 (lung cancer cells (A549); Homo sapiens, A549, 48 h) of 12.8 ± 0.71 µM and an IC50 [2] of 22.3 ± 1.11 µM. For the same compound, the IC50 [3] was 23.7 ± 1.17 µM, the “SI (selectivity index)” value [4] was 14.5 and the “reduction in the percentage of the cell population in the G2/M phase” value (MCF-7 cells [5]; compared with controls) was 32%. The “increase in the percentage of cells in the G0-G1 phase” value (MCF-7 cells [5]) was “around 7%”, the “Annexin V/PI quadrant, remaining (necrosis)” value (MCF-7 cells [6]) was 3.23% and the “average increment at the early phase of apoptosis” value (MCF-7 cells [6]) was “around 27%”. The “average increment in late-stage apoptosis” value (MCF-7 cells [6]) was “around 14%”, the “percentage of Annexin V/PI-stained cells” value (MCF-7 cells [6]) was “about 47%” and the “levels of active caspase-3/7 expression” value [7] was 19%.
Compound `NS(=O)(=O)c1ccc(Nc2nccc(Nc3ccc4[nH]ncc4c3)n2)cc1` [Compound 4g, 4-((4-((1H-indazol-5-yl)amino)pyrimidin-2-yl)amino) benzenesulfonamide] has an IC50 [1] of 4.68 ± 0.22 µM, an IC50 (lung cancer cells (A549); Homo sapiens, A549, 48 h) of 11.2 ± 0.62 µM and an IC50 [2] of 6.91 ± 0.34 µM.
Work on `O=S(=O)(Nc1nccs1)c1ccc(Nc2nccc(Nc3ccc4[nH]ncc4c3)n2)cc1` [Compound 4h, 4-((4-((1H-indazol-5-yl)amino)pyrimidin-2-yl)amino)-N-(thiazol-2-yl)benzenesulfonamide] yielded an IC50 [1] of 21.1 ± 1.01 µM, an IC50 (lung cancer cells (A549); Homo sapiens, A549, 48 h) of 23.5 ± 1.3 µM and an IC50 [2] of 17.3 ± 0.86 µM. It also gave a melting point of 211 to 213 °C.
With `COc1cc(Nc2nccc(Nc3ccc4[nH]ncc4c3)n2)cc(OC)c1OC` [Compound 4i, N4-(1H-indazol-5-yl)-N2-(3,4,5-trimethoxyphenyl) pyrimidine-2,4-diamine] the IC50 [1] was 1.84 ± 0.09 µM, the IC50 (lung cancer cells (A549); Homo sapiens, A549, 48 h) was 2.31 ± 0.13 µM and the IC50 [2] was 4.99 ± 0.25 µM. The IC50 [3] was 29.5 µM, the “SI (selectivity index)” value [4] was 16.03 and the IC50 ([4]; MCF-10a normal cell line) was 29.5 ± 1.46 µM. The “increase in the percentage of the cell population in the S phase” value (MCF-7 cells [5]; compared with control) was 3%, the “increase in the percentage of cells in the G0-G1 phase” value (MCF-7 cells [5]) was “around 7%” and the “Annexin V/PI quadrant, remaining (necrosis)” value (MCF-7 cells [6]) was 5.92%. For the same compound, the “average increment at the early phase of apoptosis” value (MCF-7 cells [6]) was “around 27%”, the “average increment in late-stage apoptosis” value (MCF-7 cells [6]) was “around 14%” and the “percentage of Annexin V/PI-stained cells” value (MCF-7 cells [6]) was “about 47%”. For the same compound, the “levels of active caspase-3/7 expression” value [7] was 26.5%.
